IC50 data for three molecules are collected here from PMC9867436, “Drug Repurposing to Inhibit Histamine N-Methyl Transferase” (Molecules, 2023).

This test has as its target T1, Histamine N-Methyltransferase (HNMT) (Homo sapiens, UniProt P50135).
T1 construct: Recombinant Human Histamine N-Methyltransferase (rhHNMT, R&D Systems 7637-MT)
The test can be described thus: fluorescence assay of histamine methylation by recombinant HNMT (ex […]/em […] nm). It is filed as biochemical.

Structures are written as SMILES. Like-named read-outs stand apart in the source and are kept apart here.

T1 sequence (P50135 whole entry): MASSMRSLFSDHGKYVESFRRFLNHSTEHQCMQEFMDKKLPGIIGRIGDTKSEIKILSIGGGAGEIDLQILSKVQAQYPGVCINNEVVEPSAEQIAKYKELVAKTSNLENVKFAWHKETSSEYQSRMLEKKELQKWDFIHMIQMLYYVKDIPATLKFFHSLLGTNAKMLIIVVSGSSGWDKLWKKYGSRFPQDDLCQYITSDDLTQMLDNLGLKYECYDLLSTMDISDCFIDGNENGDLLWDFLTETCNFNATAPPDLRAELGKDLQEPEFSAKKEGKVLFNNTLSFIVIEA

Consider `CN1C[C@H](C(=O)N[C@]2(C)O[C@@]3(O)[C@@H]4CCCN4C(=O)[C@H](Cc4ccccc4)N3C2=O)C[C@@H]2c3cccc4[nH]cc(c34)C[C@H]21` [dihydroergotamine], for which the IC50 was 72.9 µM.
As to `Cc1nc(N)nc(N)c1-c1ccc(Cl)c(Cl)c1` [metoprine, reference compound], the IC50 (read-out: IC50) amounted to 0.0667 µM.
For the molecule `N#Cc1ccc2[nH]cc(CCCCN3CCN(c4ccc5oc(C(N)=O)cc5c4)CC3)c2c1` [vilazodone], the IC50 (read-out: IC50) was found to be 45 µM.

One may read the IC50 as the concentration that gives 50% inhibition.
